Measurements taken from US6555556B1, “Benzamidine derivatives” (Sankyo Company, Limited, priority 1999, dated 2003).
Structures can show the parent of a compound that is named as a salt.

Experiments:
[1] = target: T1, human factor Xa (Homo sapiens, UniProt P00742); experiment: Determination of anti-factor Xa activity (chromogenic substrate S-2222); type: biochemical; conditions: 0.25 unit/ml human factor Xa, 0.4 mM S-2222, tris-HCl buffer pH 8.4, 5 min at room temperature, absorbance 405 nm; read-out: Factor Xa inhibitory activity [IC50 (nM)]
T1 construct: purchased Cosmo Bio Co., Ltd, Tokyo, Japan
Experimental: Anti-factor Xa activity was determined according to the method of Hara et al. (Thromb. Haemost, 71, 314 (1994), with slight modifications. A 50 mM tris-HCl buffer (pH 8.4) containing 0.9% NaCl, 0.4 mM chromogenic substrate, S-2222 (Daiichi Pure Chemicals Co., Ltd., Tokyo, Japan), and a test compound were mixed, and the reaction was started by adding 0.25 unit/ml human factor Xa (Cosmo Bio Co., Ltd, Tokyo, Japan). Distilled water instead of the test compound was added to the buffer in the control group. The reaction mixture in a total volume of 0.1 ml was incubated for 5 min at room temperature. The absorbance at 405 nm was measured continuously using a 96-well microplate reader (model 550, BioRad), and the increase in absorbance for 5 min was calculated as an index of factor Xa activity.

[2] = target: T2, bovine trypsin (Bos taurus, UniProt P00760); experiment: Determination of anti-trypsin activity (chromogenic substrate S-2222); type: biochemical; conditions: bovine trypsin 0.25 μg-protein/ml, 0.4 mM S-2222, tris-HCl buffer pH 8.4, room temperature, 5 min, absorbance 405 nm
T2 construct: purchased Sigma
T2 sequence (P00760 24-246): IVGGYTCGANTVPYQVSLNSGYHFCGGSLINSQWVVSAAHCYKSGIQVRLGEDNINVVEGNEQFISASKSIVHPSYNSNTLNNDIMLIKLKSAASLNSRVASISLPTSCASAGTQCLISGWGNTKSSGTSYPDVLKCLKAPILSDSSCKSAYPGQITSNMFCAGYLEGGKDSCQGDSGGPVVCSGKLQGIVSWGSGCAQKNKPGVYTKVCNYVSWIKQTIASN
Experimental: Anti-trypsin activity was determined according to the method of Taniuchi et al. [Thromb. Haemost., 79, 543 (1998)] with slight modifications. First, 85 μl of a 50 mM tris-HCl buffer (pH 8.4) containing 0.9% NaCl, 5 μl of chromogenic substrate, S-2222 (final concentration of 0.4 mM, Daiichi Pure Chemicals Co., Ltd., Tokyo, Japan) and 5 μl of a test compound were mixed, and the reaction was started by adding 5 μl of bovine trypsin (final concentration of 0.25 μg-protein/ml, Sigma). Distilled water instead of the test compound was added to the buffer in the control group. The reaction mixture in a total volume of 0.1 ml was incubated at room temperature. The absorbance at 405 nm was measured continuously using a 96-well microplate reader (model 550, BioRad), and the increase in absorbance for 5 min was calculated as an index of trypsin activity.

T1 sequence (P00742 235-488 limits assumed): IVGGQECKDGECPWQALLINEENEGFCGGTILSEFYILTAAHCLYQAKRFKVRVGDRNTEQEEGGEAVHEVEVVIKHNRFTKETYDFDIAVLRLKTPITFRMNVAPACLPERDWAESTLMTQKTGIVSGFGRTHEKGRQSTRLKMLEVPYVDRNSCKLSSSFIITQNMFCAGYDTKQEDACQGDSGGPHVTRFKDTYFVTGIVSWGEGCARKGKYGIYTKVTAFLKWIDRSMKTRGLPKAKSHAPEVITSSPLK
T1 sequence (P00742 41-179 partner limits assumed): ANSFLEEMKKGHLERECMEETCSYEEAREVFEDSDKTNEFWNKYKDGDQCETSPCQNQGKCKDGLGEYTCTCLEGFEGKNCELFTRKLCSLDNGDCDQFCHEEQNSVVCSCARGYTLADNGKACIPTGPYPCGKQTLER

| SMILES | IC50 [1] [nM] | IC50 [2] [nM] |
| --- | --- | --- |
| CC(=N)N1CCC(Oc2ccc(N(C/C=C/c3cccc(C(=N)N)c3)C(C)C)cc2)CC1 [Example 22, 3-[3-[N-[4-(1-Acetimidoylpiperidin-4-yloxy)phenyl]-N-isopropylamino]-1-(E)-propenyl]benzamidine Trihydrochloride] | 8.3 | – |
| CC(=N)N1CCC(Oc2ccc(N(C/C=C/c3cccc(C(=N)N)c3)CCO)cc2)CC1 [Example 28, 3-[3-[N-[4-(1-Acetimidoylpiperidin-4-yloxy)phenyl]-N-(2-hydroxyethyl)amino]-1-(E)-propenyl]benzamidine Trihydrochloride] | 9 | – |
| CC(=N)N1CCC(Oc2c(Cl)cc(N(C/C=C/c3cccc(C(=N)N)c3)S(=O)(=O)CC(=O)O)cc2Cl)CC1 [Example 49, N-[4-(1-Acetimidoylpiperidin-4-yloxy)-3,5-dichlorophenyl]-N-[3-(3-amidinophenyl)-2-(E)-propenyl]sulfamoylacetic Acid Dihydrochloride] | 9.8 | – |
| CCOC(=O)CS(=O)(=O)N(C/C(F)=C/c1cccc(C(=N)N)c1)c1ccc(OC2CCN(C(C)=N)CC2)cc1 [Example 56, Ethyl N-[4-(1-Acetimidoylpiperidin-4-yloxy)phenyl]-N-[3-(3-amidinophenyl)-2-fluoro-2-(Z)-propenyl]sulfamoylacetate Dihydrochloride] | 10 | – |
| CCOC(=O)CS(=O)(=O)N(C/C=C/c1cccc(C(=N)N)c1)c1ccc(OC2CCN(C(C)=N)CC2)c(F)c1 [Example 10, Ethyl N-[4-(1-Acetimidoylpiperidin-4-yloxy)-3-fluorophenyl]-N-[3-(3-amidinophenyl)-2-(E)-propenyl]sulfamoylacetate Dihydrochloride] | 4.6 | – |
| CC(=N)N1CCC(Oc2ccc(N(C/C(F)=C/c3cccc(C(=N)N)c3)S(=O)(=O)CC(=O)O)cc2)CC1 [Example 57, N-[4-(1-Acetimidoylpiperidin-4-yloxy)phenyl]-N-[3-(3-amidinophenyl)-2-fluoro-2-(Z)-propenyl]sulfamoylacetic Acid Dihydrochloride] | 9.3 | – |
| CC(=N)N1CCC(Oc2ccc(N(C/C=C/c3cccc(C(=N)N)c3)S(=O)(=O)CC(=O)O)cc2C(C)C)CC1 [Example 34, N-[4-(1-Acetimidoylpiperidin-4-yloxy)-3-isopropylphenyl]-N-[3-(3-amidinophenyl)-2-(E)-propenyl]sulfamoylacetic Acid Dihydrochloride] | 10 | – |
| CNC(=O)c1cc(N(C/C=C/c2cccc(C(=N)N)c2)S(=O)(=O)CC(=O)O)ccc1OC1CCN(C(C)=N)CC1 [Example 38, N-[4-(1-Acetimidoylpiperidin-4-yloxy)-3-(N′-methylcarbamoyl)phenyl]-N-[3-(3-amidinophenyl)-2-(E)-propenyl]sulfamoylacetic Acid Dihydrochloride] | 8.7 | – |
| CC(=N)N1CCC(Oc2ccc(N(C/C=C/c3cccc(C(=N)N)c3)S(=O)(=O)CC(=O)O)cc2C)CC1 [Example 55, N-[4-(1-Acetimidoylpiperidin-4-yloxy)-3-methylphenyl]-N-[3-(3-amidinophenyl)-2-(E)-propenyl]sulfamoylacetic Acid Dihydrochloride] | 5 | – |
| CCOC(=O)CS(=O)(=O)N(C/C=C/c1cccc(C(=N)N)c1)c1ccc(OC2CCN(C(C)=N)CC2)c(C(=O)OCC)c1 [Example 29, Ethyl N-[4-(1-Acetimidoylpiperidin-4-yloxy)-3-ethoxycarbonylphenyl]-N-[3-(3-amidinophenyl)-2-(E)-propenyl]sulfamoylacetate Dihydrochloride] | 9 | – |
| CC(=N)N1CCC(Oc2ccc(N(C/C=C/c3cccc(C(=N)N)c3)S(=O)(=O)CC(=O)O)cc2C(N)=O)CC1 [Example 36, N-[4-(1-Acetimidolpiperdin-4-yloxy)-3-carbamoylphenyl]-N-[3-(3-amidinophenyl)-2-(E)-propenyl]sulfamoylacetic Acid Dihydrochloride] | 7.1 | – |
| CCOC(=O)CS(=O)(=O)N(C/C=C/c1cccc(C(=N)N)c1)c1cc(F)c(OC2CCN(C(C)=N)CC2)c(F)c1 [Example 46, Ethyl N-[4-(1-Acetimidoylpiperidin-4-yloxy)-3,5-difluorophenyl]-N-[3-(3-amidinophenyl)-2-(E)-propenyl]sulfamoylacetate Dihydrochloride] | 6.8 | – |
| CC(=N)N1CCC(Oc2ccc(N(C/C=C/c3cccc(C(=N)N)c3)S(=O)(=O)CC(=O)O)cc2Cl)CC1 [Example 9, N-[4-(1-Acetimidoylpiperidin-4-yloxy)-3-chlorophenyl]-N-[3-(3-amidinophenyl)-2-(E)-propenyl]sulfamoylacetic Acid Dihydrochloride] | 7.4 | 520 |
| CC(=N)N1CCC(Oc2ccc(N(C/C=C/c3cccc(C(=N)N)c3)S(=O)(=O)CC(=O)O)cc2C(F)(F)F)CC1 [Example 54, N-[4-(1-Acetimidoylpiperidin-4-yloxy)-3-trifluoromethylphenyl]-N-[3-(3-amidinophenyl)-2-(E)-propenyl]sulfamoylacetic Acid Dihydrochloride] | 4.6 | – |

The remaining molecules from weak to strong by IC50 [1], led by results:

| IC50 [1] [nM] | IC50 [2] [nM] | SMILES |
| --- | --- | --- |
| 130 | – | CC(=N)N1CCC(Oc2ccc(N(CCOc3cccc(C(=N)N)c3)S(=O)(=O)CC(=O)O)cc2)CC1 [Compound A, N-[4-[1-acetimidoyl-4-piperidyloxy]phenyl]-N-[2-(3-amidinophenoxy)ethyl]sulfamoylacetic acid dihydrochloride salt, reference compound] |
| 10 | – | CCOC(=O)CS(=O)(=O)N(C/C=C/c1cccc(C(=N)N)c1)c1ccc(OC2CCN(C(C)=N)CC2)c(Br)c1 [Example 31, Ethyl N-[4-(1-Acetimidoylpiperidin-4-yloxy)-3-bromophenyl]-N-[3-(3-amidinophenyl)-2-(E)-propenyl]sulfamoylacetate Dihydrochloride] |
| 8.6 | – | CCOC(=O)CS(=O)(=O)N(C/C=C/c1cccc(C(=N)N)c1)c1ccc(OC2CCN(C(C)=N)CC2)cc1 [Example 3, Ethyl N-[4-(1-Acetimidoylpiperidin-4-yloxy)phenyl]-N-[3-(3-amidinophenyl)-2-(E)-propenyl]sulfamoylacetate Dihydrochloride] |
| 8.3 | – | CCOC(=O)CN(C/C=C/c1cccc(C(=N)N)c1)c1ccc(OC2CCN(C(C)=N)CC2)cc1 [Example 23, Ethyl 2-[N-[4-(1-Acetimidoylpiperidin-4-yloxy)phenyl]-N-[3-(3-amidinophenyl)-2-(E)-propenyl]amino]acetate Trihydrochloride] |
| 8.1 | 840 | CC(=N)N1CCC(Oc2ccc(N(C/C=C/c3cccc(C(=N)N)c3)S(=O)(=O)CC(=O)O)cc2F)CC1 [Example 11, N-[4-(1-Acetimidoylpiperidin-4-yloxy)-3-fluorophenyl]-N-[3-(3-amidinophenyl)-2-(E)-propenyl]sulfamoylacetic Acid Dihydrochloride] |
| 7.5 | – | CCOC(=O)CS(=O)(=O)N(C/C=C/c1cc(C(=N)N)ccc1O)c1ccc(OC2CCN(C(C)=N)CC2)c(Cl)c1 [Example 41, Ethyl N-[4-(1-Acetimidoylpiperidin-4-yloxy)-3-chlorophenyl]-N-[3-(5-amidino-2-hydroxyphenyl)-2-(E)-propenyl]sulfamoylacetate Dihydrochloride] |
| 6.4 | – | CC(=N)N1CCC(Oc2ccc(N(C/C=C/c3cccc(C(=N)N)c3)S(=O)(=O)CC(=O)O)cc2)CC1 [Example 4, N-[4-(1-Acetimidoylpiperidin-4-yloxy)phenyl]-N-[3-(3-amidinophenyl)-2-(E)-propenyl]sulfamoylacetic Acid Dihydrochloride] |
| 4.5 | – | CCOC(=O)CS(=O)(=O)N(C/C=C/c1cccc(C(=N)N)c1)c1ccc(OC2CCN(C(C)=N)CC2)c(Cl)c1 [Example 8, Ethyl N-[4-(1-Acetimidoylpiperidin-4-yloxy)-3-chlorophenyl]-N-[3-(3-amidinophenyl)-2-(E)-propenyl]sulfamoylacetate Dihydrochloride] |
| 3.7 | – | CC(=N)N1CCC(Oc2c(F)cc(N(C/C=C/c3cccc(C(=N)N)c3)S(=O)(=O)CC(=O)O)cc2F)CC1 [Example 47, N-[4-(1-Acetimidoylpiperidin-4-yloxy)-3,5-difluorophenyl]-N-[3-(3-amidinophenyl)-2-(E)-propenyl]sulfamoylacetic Acid Dihydrochloride] |
